The text below walks through data of patent US20240343704A1, “HALO-SUBSTITUTED AMINO PYRIDINE COMPOUNDS AS INHIBITORS OF THE HAEMATOPOIETIC PROGENITOR KINASE 1 (HPK1)” (priority 2021, published 2024).

Molecules are shown by their SMILES.

Experiment [1] deals with T1, Recombinant (1-346) HPK1 (h) (Homo sapiens, UniProt Q92918).
T1 construct: Recombinant (1-346) HPK1 (h) is incubated with 8 mM MOPS pH 7.0
T1 sequence (Q92918 1-346): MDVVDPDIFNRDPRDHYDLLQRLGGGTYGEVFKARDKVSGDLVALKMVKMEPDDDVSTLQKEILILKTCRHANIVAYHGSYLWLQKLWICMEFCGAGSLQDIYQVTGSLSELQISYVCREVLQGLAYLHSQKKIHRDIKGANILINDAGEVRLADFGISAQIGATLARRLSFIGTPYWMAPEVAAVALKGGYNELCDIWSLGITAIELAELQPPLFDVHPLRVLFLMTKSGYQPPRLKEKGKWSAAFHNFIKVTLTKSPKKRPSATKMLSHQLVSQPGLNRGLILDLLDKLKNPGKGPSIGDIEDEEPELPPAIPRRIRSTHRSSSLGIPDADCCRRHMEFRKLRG
Kind of experiment: HPK1 Human STE Kinase Enzymatic Radiometric Assay. The format is biochemical. The conditions noted are these: read-out: HPK1 IC50 nM Range*. As to the method:
A stock solution of 10 mM of test compound is prepared in DMSO. The compound plate was prepared by 3-fold and 9-point serial dilutions. […] The reaction is initiated by The addition of the Mg/ATP mix. After incubation for 40 minutes at RT, the reaction is stopped by the addition of phosphoric acid to a concentration of 0.5%.

Another experiment addresses Lck (h) (Homo sapiens, UniProt P06239). In words: Lck Human  Kinase Enzymatic Radiometric Assay. The format is biochemical. The conditions noted are these: read-out: Lck IC50 nM Range*. An outline of the steps: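 Substrate 33P-incorporation measured by scintillation counting after spotting on P30 filtermat and phosphoric acid washes. Human Lck reacted 40 min at RT in 50 mM Tris pH 7.5 with 10 mM MgAcetate, [gamma-33P]-ATP, 250 uM Cdc2 peptide, 0.1 mM EGTA and 0.1 mM Na3VO4.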

Lck (h), sequence (P06239 whole entry): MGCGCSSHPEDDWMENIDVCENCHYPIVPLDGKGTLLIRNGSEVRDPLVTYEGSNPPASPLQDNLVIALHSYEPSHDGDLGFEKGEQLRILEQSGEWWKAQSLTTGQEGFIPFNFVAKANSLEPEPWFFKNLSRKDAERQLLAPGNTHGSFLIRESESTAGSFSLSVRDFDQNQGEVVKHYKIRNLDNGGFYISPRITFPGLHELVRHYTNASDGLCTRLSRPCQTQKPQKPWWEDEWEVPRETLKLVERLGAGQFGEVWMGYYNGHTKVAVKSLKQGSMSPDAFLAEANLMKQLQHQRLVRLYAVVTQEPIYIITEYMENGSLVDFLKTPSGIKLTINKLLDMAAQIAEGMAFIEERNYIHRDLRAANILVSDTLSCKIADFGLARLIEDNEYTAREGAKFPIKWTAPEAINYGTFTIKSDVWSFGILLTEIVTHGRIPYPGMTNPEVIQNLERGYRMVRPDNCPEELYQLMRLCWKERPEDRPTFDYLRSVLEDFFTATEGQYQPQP

The IC50 is the point on the concentration scale where inhibition reaches its midpoint. `CC(C)N1CCN(c2ccc(-c3cc(-c4cc5c(cc4F)C(=O)NCC5)c(N)nc3Cl)cc2)CC1` [I-209, 6-(2-amino-6-chloro-5-(4-(4-isopropylpiperazin-1-yl)phenyl)pyridin-3-yl)-7-fluoro-3,4-dihydroisoquinolin-1(2H)-one]: the results for the IC50 (in experiment [1]; on Lck (h)) were 0.1 to 10 nM and above 1000 nM, respectively.
Taken in the same sequence, the figures for `Nc1nc(F)c(-c2ccc(N3CCN(CC4CC4)CC3)cc2)cc1-c1ccc2c(c1)CCNC2=O` [I-210, 6-(2-amino-5-(4-(4-(cyclopropylmethyl)piperazin-1-yl)phenyl)-6-fluoropyridin-3-yl)-3,4-dihydroisoquinolin-1(2H)-one] were 0.1 to 10 nM and 101 to 1000 nM.
For the compound `CCN1CCN(c2ccc(-c3cc(-c4cc5c(cc4F)C(=O)NCC5)c(N)nc3F)cc2)CC1` [I-211, 6-(2-amino-5-(4-(4-ethylpiperazin-1-yl)phenyl)-6-fluoropyridin-3-yl)-7-fluoro-3,4-dihydroisoquinolin-1(2H)-one], the results for the IC50 (in experiment [1]; at Lck (h)) were 0.1 to 10 nM and above 1000 nM, respectively.
With `COCCN1CCN(c2ccc(-c3cc(-c4cc5c(cc4F)C(=O)NCC5)c(N)nc3F)cc2)CC1` [I-212, 6-(2-amino-6-fluoro-5-(4-(4-(2-methoxyethyl)piperazin-1-yl)phenyl)pyridin-3-yl)-7-fluoro-3,4-dihydroisoquinolin-1(2H)-one], the IC50 in experiment [1] is 0.1 to 10 nM; on Lck (h), above 1000 nM.
In the case of `Nc1nc(F)c(-c2ccc(N3CCN(CC4CC4)CC3)cc2)cc1-c1cc2c(cc1F)C(=O)NCC2` [I-213, 6-(2-amino-5-(4-(4-(cyclopropylmethyl)piperazin-1-yl)phenyl)-6-fluoropyridin-3-yl)-7-fluoro-3,4-dihydroisoquinolin-1(2H)-one], the half-inhibitory concentration (IC50) was 0.1 to 10 nM in experiment [1] and above 1000 nM on Lck (h).
In the same order, the values of `COCCN1CCC2(CC1)OCc1cc(-c3cc(-c4ccc5c(c4)CCNC5=O)c(N)nc3F)ccc1O2` [I-214, 6-(2-amino-6-fluoro-5-(1′-(2-methoxyethyl)-4H-spiro[benzo[d][1,3]dioxine-2,4′-piperidin]-6-yl)pyridin-3-yl)-3,4-dihydroisoquinolin-1(2H)-one] are 0.1 to 10 nM and above 1000 nM.
Taken in the same sequence, the figures for `COCCN1CCC2(CC1)CC(=O)c1cc(-c3cc(-c4ccc5c(c4)CCNC5=O)c(N)nc3F)ccc1O2` [I-215, 6-(6-amino-2-fluoro-5-(1-oxo-1,2,3,4-tetrahydroisoquinolin-6-yl)pyridin-3-yl)-1′-(2-methoxyethyl)spiro[chromane-2,4′-piperidin]-4-one] were 0.1 to 10 nM and above 1000 nM.
For the compound `COCCN1CCC2(CCc3cc(-c4cc(-c5ccc6c(c5)CCNC6=O)c(N)nc4F)ccc3O2)CC1` [I-216, 6-(2-amino-6-fluoro-5-(1′-(2-methoxyethyl)spiro[chromane-2,4′-piperidin]-6-yl)pyridin-3-yl)-3,4-dihydroisoquinolin-1(2H)-one], the IC50 in experiment [1] was 0.1 to 10 nM; on Lck (h), above 1000 nM.
Taken in the same sequence, the figures for `COCCN1CCC(Oc2ccc(-c3cc(-c4ccc5c(c4)CCNC5=O)c(N)nc3F)cc2C#N)CC1` [I-217, 5-(6-amino-2-fluoro-5-(1-oxo-1,2,3,4-tetrahydroisoquinolin-6-yl)pyridin-3-yl)-2-((1-(2-methoxyethyl)piperidin-4-yl)oxy)benzonitrile] were 0.1 to 10 nM and above 1000 nM.
As to `CC(C)N1CCC2(CC1)OCc1cc(-c3cc(-c4ccc5c(c4)CCNC5=O)c(N)nc3F)ccc1O2` [I-218, 6-(2-amino-6-fluoro-5-(1′-isopropyl-4H-spiro[benzo[d][1,3]dioxine-2,4′-piperidin]-6-yl)pyridin-3-yl)-3,4-dihydroisoquinolin-1(2H)-one], the IC50 in experiment [1] was 0.1 to 10 nM; at Lck (h), above 1000 nM.
In the same order, the values of `Nc1nc(F)c(-c2ccc(N3CCNCC3)c(C(F)(F)F)c2)cc1-c1cc2c(cc1F)C(=O)NCC2` [I-219, 6-(2-amino-6-fluoro-5-(4-(piperazin-1-yl)-3-(trifluoromethyl)phenyl)pyridin-3-yl)-7-fluoro-3,4-dihydroisoquinolin-1(2H)-one] are 0.1 to 10 nM and above 1000 nM.
For the compound `COCC(=O)N1C[C@H]2C[C@@]2(c2ccc(-c3cc(-c4ccc5c(c4)CCNC5=O)c(N)nc3F)cc2)C1` [I-220, 6-(2-amino-6-fluoro-5-(4-((1R,5S)-3-(2-methoxyacetyl)-3-azabicyclo[3.1.0]hexan-1-yl)phenyl)pyridin-3-yl)-3,4-dihydroisoquinolin-1(2H)-one], the 50% inhibitory concentration (IC50) is 0.1 to 10 nM in experiment [1] and above 1000 nM at Lck (h).
As to `CC(=O)N1CCN(c2ccc(-c3cc(-c4cc5c(cc4F)C(=O)NCC5)c(N)nc3F)cn2)CC1` [I-221, 6-(6′-(4-acetylpiperazin-1-yl)-6-amino-2-fluoro-[3,3′-bipyridin]-5-yl)-7-fluoro-3,4-dihydroisoquinolin-1(2H)-one 2,2,2-trifluoroacetate], the concentration for half-maximal inhibition (IC50) in experiment [1] was 11 to 100 nM; at Lck (h) it was above 1000 nM.
Taken in the same sequence, the figures for `CC(C)N1CCC2(CC1)CC(=O)c1cc(-c3cc(-c4ccc5c(c4)CCNC5=O)c(N)nc3F)ccc1O2` [I-222, 6-(6-amino-2-fluoro-5-(1-oxo-1,2,3,4-tetrahydroisoquinolin-6-yl)pyridin-3-yl)-1′-isopropylspiro[chromane-2,4′-piperidin]-4-one] were 0.1 to 10 nM and above 1000 nM.
In the same order, the values of `CC(C)N1CCC2(CCc3cc(-c4cc(-c5ccc6c(c5)CCNC6=O)c(N)nc4F)ccc3O2)CC1` [I-223, 6-(2-amino-6-fluoro-5-(1′-isopropylspiro[chromane-2,4′-piperidin]-6-yl)pyridin-3-yl)-3,4-dihydroisoquinolin-1(2H)-one] are 0.1 to 10 nM and above 1000 nM.
As to `CC(C)N1CCC(Oc2ccc(-c3cc(-c4ccc5c(c4)CCNC5=O)c(N)nc3F)cc2C#N)CC1` [I-224, 5-(6-amino-2-fluoro-5-(1-oxo-1,2,3,4-tetrahydroisoquinolin-6-yl)pyridin-3-yl)-2-((1-isopropylpiperidin-4-yl)oxy)benzonitrile], the IC50 was 0.1 to 10 nM in experiment [1] and above 1000 nM on Lck (h).
For `CN(C)CC(=O)N1C[C@H]2C[C@@]2(c2ccc(-c3cc(-c4ccc5c(c4)CCNC5=O)c(N)nc3F)cc2)C1` [I-225, 6-(2-amino-5-(4-((1R,5S)-3-(dimethylglycyl)-3-azabicyclo[3.1.0]hexan-1-yl)phenyl)-6-fluoropyridin-3-yl)-3,4-dihydroisoquinolin-1(2H)-one], the half-inhibitory concentration (IC50) in experiment [1] was 0.1 to 10 nM; at Lck (h) it was above 1000 nM.
Taken in the same sequence, the figures for `CC(C)N1CCN(c2ccc(-c3cc(-c4cc5c(cc4F)C(=O)NCC5)c(N)nc3F)cn2)CC1` [I-226, 6-(6-amino-2-fluoro-6′-(4-isopropylpiperazin-1-yl)-[3,3′-bipyridin]-5-yl)-7-fluoro-3,4-dihydroisoquinolin-1(2H)-one] were 0.1 to 10 nM and above 1000 nM.
Turning to `Nc1cc2cc(-c3cc(-c4ccc5c(c4)CCNC5=O)c(N)nc3F)c(F)c(Cl)c2cn1` [I-227, 6-(2-amino-5-(3-amino-8-chloro-7-fluoroisoquinolin-6-yl)-6-fluoropyridin-3-yl)-3,4-dihydroisoquinolin-1(2H)-one], the results for the IC50 (in experiment [1]; at Lck (h)) were 11 to 100 nM and above 1000 nM, respectively.
